Experiment [1] relates to TNFα production in LPS-stimulated human monocytes. Kind of experiment: Cot Monocyte TNFα Cell Based Assay. Conditions: Homo sapiens, Monocyte, read-out: EC50 TNF. In a few lines:
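Percent-of-control values derive from TR-FRET ratios of TNFα in spun-down media, referenced to unstimulated and LPS-stimulated wells. Exposure: 1 h compound preincubation, then 50 pg/ml LPS for 4 h, both at 37 °C, with 0.5% final DMSO.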

The target of experiment [2] is T1, human Cot catalytic domain (30-397 amino acids) (Homo sapiens, UniProt P41279).
T1 construct: Purified recombinant human Cot catalytic domain (30-397 amino acids) was purchased from Cama Biosciences; purchased Cama Biosciences (so in the source)
T1 sequence (P41279 30-397): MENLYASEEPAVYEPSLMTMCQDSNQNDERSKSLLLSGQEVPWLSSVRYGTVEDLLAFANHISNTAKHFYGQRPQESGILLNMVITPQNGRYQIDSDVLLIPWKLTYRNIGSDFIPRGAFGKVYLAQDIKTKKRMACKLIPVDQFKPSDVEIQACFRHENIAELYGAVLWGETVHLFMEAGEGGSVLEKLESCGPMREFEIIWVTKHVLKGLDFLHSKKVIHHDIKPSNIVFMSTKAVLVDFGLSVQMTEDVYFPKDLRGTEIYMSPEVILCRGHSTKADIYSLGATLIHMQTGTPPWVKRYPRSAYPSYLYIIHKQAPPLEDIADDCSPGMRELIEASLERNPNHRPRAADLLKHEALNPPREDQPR
Kind of experiment: High Throughput Cot Biochemical Assay (KinEASE TR-FRET). To be noted: read-out: IC50 HTRF. In a few lines: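 Phosphorylation of 1 μM XL665-STK3 peptide by 5 nM Cot catalytic domain was measured by time-resolved FRET using a europium […] antibody. ATP was 400 μM; buffer was 10 mM MOPS pH 7.0 with Mg2+ and DTT.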

[3] abbreviates: TNFα in LPS-stimulated human monocytes.
[4] abbreviates: Cot biochemical HTRF (KinEASE TR-FRET) assay.
[5] abbreviates: Cot KinEASE TR-FRET (HTRF) biochemical assay, 400 μM ATP.
Setting [6] is: LPS-stimulated human monocytes, TNFα TR-FRET.
[7] abbreviates: Cot KinEASE TR-FRET, 400 μM ATP.

Like-named read-outs stand apart in the source and are kept apart here.

Turning to `CC(C)(C)N1CCC(n2cc([C@@H](Nc3cc(Cl)c4ncc(C#N)c(Nc5ccc(F)c(Cl)c5)c4c3)c3ccccc3CN3CCOCC3)nn2)CC1` [Example 719, (S)-6-(((1-(1-(tert-butyl)piperidin-4-yl)-1H-1,2,3-triazol-4-yl)(2-(morpholinomethyl)phenyl)methyl)amino)-8-chloro-4-((3-chloro-4-fluorophenyl)amino)quinoline-3-carbonitrile], in experiment [1] (setting [3]), the EC50 was 2.58 µM. Further, the IC50 in experiment [2] (setting [4]) was 0.041 µM.

With `[2H]C(Nc1cc(Cl)c2ncc(C#N)c(N[C@@H]3CCCC[C@@H]3N)c2c1)(c1ccc(F)cc1)c1cn(C2CC2)nn1` (stereo in doubt) [Example 228, 4-(((1R,2S)-2-aminocyclohexyl)amino)-8-chloro-6-(((S)-(1-cyclopropyl-1H-1,2,3-triazol-4-yl)(4-fluorophenyl)methyl-d)amino)quinoline-3-carbonitrile], the EC50 in experiment [1] (setting [3]) was more than 10 µM. In addition, the 50% inhibitory concentration (IC50) in experiment [2] (setting [5]) was determined as 0.807 µM.

In the case of `CC[C@@H](C)Nc1c(C#N)cnc2c(Cl)cc(N[C@@H](c3ccccc3)c3cn(C4CCN(C(C)(C)C)CC4)nn3)cc12` [Example 590, 4-(((R)-sec-butyl)amino)-6-(((S)-(1-(1-(tert-butyl)piperidin-4-yl)-1H-1,2,3-triazol-4-yl)(phenyl)methyl)amino)-8-chloroquinoline-3-carbonitrile], the concentration giving a half-maximal response (EC50) in experiment [1] (setting [3]) is 3.52 µM. For the same compound, the 50% inhibitory concentration (IC50) in experiment [2] (setting [4]) is 0.131 µM.

On to `N#Cc1cnc2c(Cl)cc(N[C@@H](c3ccc(F)cc3)c3c[nH]nn3)cc2c1Nc1ccc(F)c(Cl)c1` [Example 819, (S)-8-chloro-4-((3-chloro-4-fluorophenyl)amino)-6-(((4-fluorophenyl)(1H-1,2,3-triazol-4-yl)methyl)amino)quinoline-3-carbonitrile], for which, in experiment [1] (setting [3]), the EC50 was determined as 0.426 µM. For the same compound, in experiment [2] (setting [4]), the IC50 stood at 0.022 µM.

For `CC(C)C(C)(C)CNc1c(C#N)cnc2c(Cl)cc(N[C@@H](c3ccc(F)cc3)c3c[nH]nn3)cc12` [Example 399, (S)-8-chloro-6-(((4-fluorophenyl)(1H-1,2,3-triazol-4-yl)methyl)amino)-4-((2,2,3-trimethylbutyl)amino) quinoline-3-carbonitrile], the EC50 in experiment [1] (setting [3]) was determined as 0.891 µM. Moreover, in experiment [2] (setting [5]), the IC50 was 0.038 µM.

`CC[C@@H](Nc1c(C#N)cnc2c(Cl)cc(N[C@@H](c3cccc(C(=O)N(C)C)c3)c3cn(C(C)C)nn3)cc12)c1ccccc1` [Example 599, 3-((S)-((8-chloro-3-cyano-4-(((R)-1-phenylpropyl)amino)quinolin-6-yl)amino)(1-isopropyl-1H-1,2,3-triazol-4-yl)methyl)-N,N-dimethylbenzamide]: in experiment [1] (setting [3]), the EC50 turned out to be 0.134 µM. The IC50 in experiment [2] (setting [4]) was 0.003 µM.

As for `Cc1c(C#N)cccc1[C@H](Nc1cc(Cl)c2ncc(C#N)c(NCC(C)(C)C(F)(F)F)c2c1)c1cn(C2(C)CC2)nn1` [Example 1104, (S)-8-chloro-6-(((3-cyano-2-methylphenyl)(1-(1-methylcyclopropyl)-1H-1,2,3-triazol-4-yl)methyl)amino)-4-((3,3,3-trifluoro-2,2-dimethylpropyl)amino)quinoline-3-carbonitrile], in experiment [1] (setting [6]), the EC50 is 0.053 µM. In addition, the IC50 in experiment [2] (setting [7]) turned out to be 0.003 µM.

For the compound `[2H][C@](Nc1cc(Cl)c2ncc(C#N)c(NCC(C)(C)C)c2c1)(c1ccc(F)cc1)c1cn(C2CC2)nn1` [Compound 1], the EC50 in experiment [1] (setting [3]) stood at 0.143 µM. For the same compound, the IC50 in experiment [2] (setting [5]) came to 0.006 µM.

Regarding `[2H][C@](Nc1cc(C#N)c2ncc(C#N)c(NC3CCCC3(C)C)c2c1)(c1ccc(F)cc1)c1cn(C2CC2)nn1` (stereo partly drawn) [Example 1034, 6-(((S)-(1-cyclopropyl-1H-1,2,3-triazol-4-yl)(4-fluorophenyl)methyl-d)amino)-4-((2,2-dimethylcyclopentyl)amino) quinoline-3,8-dicarbonitrile], in experiment [1] (setting [6]), the EC50 amounted to 0.093 µM. Further, the IC50 in experiment [2] (setting [7]) came out at 0.004 µM.

Turning to `CN(C)c1cccc([C@H](Nc2cc(Cl)c3ncc(C#N)c(Nc4ccc(F)c(Cl)c4)c3c2)c2cn(C3CCN(C(C)(C)C)CC3)nn2)c1` [Example 595, (S)-6-(((1-(1-(tert-butyl)piperidin-4-yl)-1H-1,2,3-triazol-4-yl)(3-(dimethylamino)phenyl)methyl)amino)-8-chloro-4-((3-chloro-4-fluorophenyl)amino)quinoline-3-carbonitrile], the EC50 in experiment [1] (setting [3]) came out at 0.305 µM. Further, the 50% inhibitory concentration (IC50) in experiment [2] (setting [4]) was 0.008 µM.

On to `CC[C@@H](Nc1c(C#N)cnc2c(Cl)cc(N[C@@H](c3ccccc3)c3cn(CCCN4CCCC4)nn3)cc12)c1ccccc1` [Example 536, 8-chloro-6-(((S)-phenyl (1-(3-(pyrrolidin-1-yl)propyl)-1H-1,2,3-triazol-4-yl)methyl)amino)-4-(((R)-1-phenylpropyl)amino)quinoline-3-carbonitrile], for which the EC50 in experiment [1] (setting [3]) is 0.084 µM. Moreover, the IC50 in experiment [2] (setting [4]) was 0.003 µM.

Turning to `CNC(=O)c1cc([C@H](Nc2cc(Cl)c3ncc(C#N)c(NCC(C)(C)C)c3c2)c2cn(C3(C(F)(F)F)CC3)nn2)ccc1F` [Example 1116, (S)-5-(((8-chloro-3-cyano-4-(neopentylamino)quinolin-6-yl)amino)(1-(1-(trifluoromethyl)cyclopropyl)-1H-1,2,3-triazol-4-yl)methyl)-2-fluoro-N-methylbenzamide], in experiment [1] (setting [6]), the EC50 was not below 1 µM. In addition, in experiment [2] (setting [7]), the IC50 worked out at 0.038 µM.

In the case of `CC1(Cn2cc([C@@H](Nc3cc(Cl)c4ncc(C#N)c(Nc5ccc(F)c(Cl)c5)c4c3)c3ccc(F)cc3)nn2)COC1` [Example 808, (S)-8-chloro-4-((3-chloro-4-fluorophenyl)amino)-6-(((4-fluorophenyl)(1-((3-methyloxetan-3-yl)methyl)-1H-1,2,3-triazol-4-yl)methyl)amino)quinoline-3-carbonitrile], in experiment [1] (setting [3]), the EC50 turned out to be 0.434 µM. Besides, in experiment [2] (setting [4]), the IC50 was 0.026 µM.

As to `[2H]C(Nc1cc(Cl)c2ncc(C#N)c(NCC(C)(C)C)c2c1)(c1cn(C(F)(F)CO)nn1)c1ccccc1Cl` (stereo not drawn) [Compound 26], in experiment [1] (setting [3]), the 50% effective concentration (EC50) was found to be 0.38 µM. For the same compound, the IC50 in experiment [2] (setting [5]) amounted to 0.013 µM.

For the compound `C[C@@H](CNc1c(C#N)cnc2c(Cl)cc(N[C@@H](c3ccc(Cl)cc3)c3cn(C4CCN(C(C)(C)C)CC4)nn3)cc12)c1ccccc1` [Example 659, 6-(((S)-(1-(1-(tert-butyl)piperidin-4-yl)-1H-1,2,3-triazol-4-yl)(4-chlorophenyl)methyl)amino)-8-chloro-4-(((R)-2-phenylpropyl)amino)quinoline-3-carbonitrile], the EC50 in experiment [1] (setting [3]) was 5.35 µM. Moreover, the IC50 in experiment [2] (setting [4]) is 0.095 µM.

For the compound `[2H][C@](Nc1cc(F)c2ncc(C#N)c(N[C@H](CC)c3ccccc3)c2c1)(c1ccc(F)cc1)c1cn(C2CC2)nn1` [Example 291, 6-(((S)-(1-cyclopropyl-1H-1,2,3-triazol-4-yl)(4-fluorophenyl)methyl-d)amino)-8-fluoro-4-(((R)-1-phenylpropyl)amino) quinoline-3-carbonitrile], in experiment [1] (setting [3]), the EC50 came to 0.173 µM. Further, the IC50 in experiment [2] (setting [5]) turned out to be 0.008 µM.

In the case of `Cc1c(-c2ccncc2)cccc1[C@H](Nc1cc(C#N)c2ncc(C#N)c(NCC(C)(C)C)c2c1)c1cn(C2(C(F)F)CC2)nn1` [Example 1141, (S)-6-(((1-(1-(difluoromethyl)cyclopropyl)-1H-1,2,3-triazol-4-yl)(2-methyl-3-(pyridin-4-yl)phenyl)methyl)amino)-4-(neopentylamino)quinoline-3,8-dicarbonitrile], the concentration for a half-maximal effect (EC50) in experiment [1] (setting [6]) is 0.069 µM. In addition, the 50% inhibitory concentration (IC50) in experiment [2] (setting [7]) was 0.002 µM.

In the case of `CC(C)(C)CNc1c(C#N)cnc2c(C#N)cc(N[C@H](c3cn(C4(C(N)=O)CCC4)nn3)c3ccccc3Cl)cc12` [Example 1014, (S)-1-(4-((2-chlorophenyl) ((3,8-dicyano-4-(neopentylamino)quinolin-6-yl)amino)methyl)-1H-1,2,3-triazol-1-yl)cyclobutane-1-carboxamide], the EC50 in experiment [1] (setting [6]) worked out at 0.106 µM. Moreover, in experiment [2] (setting [7]), the IC50 was 0.003 µM.

As to `Cc1c([C@H](Nc2cc(Cl)c3ncc(C#N)c(NCC(C)(C)C)c3c2)c2cn(C3(C(F)F)CC3)nn2)cccc1-n1ccnc1` [Example 1069, (S)-6-(((3-(1H-imidazol-1-yl)-2-methylphenyl)(1-(1-(difluoromethyl)cyclopropyl)-1H-1,2,3-triazol-4-yl)methyl)amino)-8-chloro-4-(neopentylamino)quinoline-3-carbonitrile], the EC50 in experiment [1] (setting [6]) came to 0.054 µM. The 50% inhibitory concentration (IC50) in experiment [2] (setting [7]) is 0.002 µM.

In the case of `[2H][C@](Nc1cc(Cl)c2ncc(C#N)c(NC34CC5CC(CC(C5)C3)C4)c2c1)(c1ccc(F)cc1)c1cn(C2CC2)nn1` [Example 245, 4-(((3R,5R,7R)-adamantan-1-yl)amino)-8-chloro-6-(((S)-(1-cyclopropyl-1H-1,2,3-triazol-4-yl)(4-fluorophenyl)methyl-d)amino)quinoline-3-carbonitrile], the concentration giving a half-maximal response (EC50) in experiment [1] (setting [3]) is 0.557 µM. Further, the IC50 in experiment [2] (setting [5]) came to 0.046 µM.

With `N#Cc1cnc2c(Cl)cc(N[C@H](c3c[nH]nn3)c3cccc(F)c3F)cc2c1Nc1cnc(F)c(F)c1` [Example 448, (S)-8-chloro-6-(((2,3-difluorophenyl)(1H-1,2,3-triazol-4-yl)methyl)amino)-4-((5,6-difluoropyridin-3-yl)amino)quinoline-3-carbonitrile], in experiment [1] (setting [3]), the EC50 came out at 1.86 µM. In addition, the IC50 in experiment [2] (setting [4]) worked out at 0.026 µM.

Broadly, the EC50 is the concentration giving half of the maximal effect. By IC50 is commonly meant the concentration that gives 50% inhibition.

For the origin of these results see patent US10316017B2, “COT modulators and methods of use thereof” (Gilead Sciences, Inc., priority 2015, dated 2019).
